According to patent publication US9801922B2, “Compositions and methods of treating cancer” (UNIVERSITY OF IOWA RESEARCH FOUNDATION, priority 2011, dated 2017):
Read-outs that look alike come from different tables or passages of the source.

Legend:
MB231 cells = conditions: 24 hrs
Method: MB231 cells were treated with 0.5 μM, 1.0 μM, and 2.0 μM azido-decylTPP and bis-TPP and incubated for 24 hrs. DMSO was added to control dishes to a final concentration of 0.1%. Following a 24 hr. incubation period, cells were plated at densities of 200, 400, 600, 800, and 2,000 cells per dish and incubated for 2 weeks. After incubation, cells were stained with Coomassie blue and counted under a light microscope. Survival fraction was calculated by dividing the number of colonies counted following treatment by the product of the number of cells plated and plating efficiency.

[1] = test system: Hec50co human endometrial cancer cells; conditions: 2 uM, 24 hrs
Method: Hec50co human endometrial cancer cells were treated with 0.5 μM, 1.0 and 2.0 μM azido-decylTPP and bis-TPP and incubated for 24 hrs. DMSO was added to control dishes to a final concentration of 0.1%. Following a 24 hr. incubation period, cells were plated at densities of 200, 400, 600, 800, 2,000, 5,000, and 10,000 cells per dish and incubated for 2 weeks. After incubation, cells were stained with Coomassie blue and counted under a light microscope. Survival fraction was calculated by dividing the number of colonies counted following treatment by the product of the number of cells plated and plating efficiency. Error bars represent uncertainties of N=2 experiments.

A375 melanoma cells = test: MTT survival fraction analysis, A375; format: cell-based

Molecule | survival fraction (MB231 cells; 0.5 uM) | survival fraction (MB231 cells; 2 uM) | survival fraction [1] | cytotoxicity in the absence of BSO, in words (A375 melanoma cells) | survival fraction (A375 melanoma cells; in the presence of BSO, 2 μM) | cytotoxicity in the presence of BSO, in words (A375 melanoma cells; up to 2 μM)
decane-1,10-diylbis(triphenylphosphonium) [bis-DTPP] | 90% | 82% | 66% | – | – | –
CCCCC[P+](c1ccccc1)(c1ccccc1)c1ccccc1 [pentyl-TPP] | – | – | – | no effect | 70% | little cytotoxicity
[N-]=[N+]=NCCCCCCCCCC[P+](c1ccccc1)(c1ccccc1)c1ccccc1 [azido-DTPP, (10-azidodecyl)triphenylphosphonium] | 55% | 10% | 24% | – | – | –
